Measurements taken from patent publication US20230218559A1, “Compositions and Methods for Treating Aging and Age-Related Diseases and Symptoms” (The Regents of the University of California, priority 2014, published 2023).

Columns and labels:
[1] = tested on: C. elegans; test: Assay for ATP levels in C. elegans; format: in vivo, Caenorhabditis elegans; details: 8 mM; day 2, P=0.969; day 8, P=0.012
Method: Assay for ATP levels in C. elegans. […] ATP levels were normalized to number of worms. Statistical analysis was performed using Microsoft Excel (t-test, two-tailed, two-sample unequal variance).

[2] = target: T1, mTOR (Homo sapiens, UniProt P42345); test: DARTS for TOR in HEK-293 / HeLa lysates; format: binding; details: HEK-293 or HeLa lysates
T1 construct: HEK-293 (Panel d) or HeLa (Panel e) cells were lysed in M-PER buffer; endogenous in cells; host or cells: HEK-293; HeLa
Description: Number of GFP::LGG-1 containing puncta was quantitated using ImageJ. Bars indicate the mean. […] ImageJ was used to quantify the mTOR/GAPDH and ATP5B/GAPDH ratios.

[3] = tested on: lactate dehydrogenase; test: Coupling-enzyme control of SMP ATPase assay; format: biochemical; details: up to 10 mM, external ADP added
Method: (§1) The SMP ATPase activity was assayed using the Complex V Activity Buffer as above. The production of ADP is coupled to the oxidation of NADH to NAD^+ through pyruvate kinase and lactate dehydrogenase. […] The absorbance decrease of NADH at 340 nm correlates to ATPase activity.

[4] = tested on: pyruvate kinase; test: Coupling-enzyme control of SMP ATPase assay; format: biochemical; details: up to 10 mM, external ADP added
Method: as §1

[5] = target: T2, Complex V (Bos taurus, UniProt P00829); test: Complex V activity assay (MitoTox OXPHOS kit); format: biochemical, bovine
T2 construct: from bovine heart mitochondria; purchased Abcam ab109907; host or cells: bovine heart mitochondria
Method: Complex V activity was assayed using the MitoTox OXPHOS Complex V Activity Kit (Abcam, ab109907). Vehicle (H2O) or α-KG was mixed with the enzyme prior to the addition of phospholipids. […] Relative Complex V activity was compared to vehicle. Oligomycin (Sigma, O4876) was used as a positive control for the assay.

[6] = target: T3, ATP-2 (Caenorhabditis elegans, UniProt P46561); test: DARTS using C. elegans lysate; format: binding; details: worm lysate
T3 construct: from tissue; host or cells: lysate of whole wild-type C. elegans
Method: For DARTS using C. elegans (FIG. 6, Panel a), wild-type animals of various ages were grown on NGM/OP50 plates, washed 4 times with M9 buffer, and immediately placed in the −80° C. freezer. […] All steps were performed on ice or at 4° C. to help prevent premature protein degradation. TNC buffer (50 mM Tris-HCl pH 8.0, 50 mM NaCl, 10 mM CaCl2) was added to the worm lysates.

[7] = tested on: T4, Complex IV; test: Complex IV activity assay (MitoTox OXPHOS kit); format: biochemical, bovine; details: relative to vehicle (H2O)
T4 construct: from bovine heart mitochondria; purchased Abcam ab109906; host or cells: bovine heart mitochondria
Method: Complex IV activity was assayed using the MitoTox OXPHOS Complex IV Activity Kit (Abcam, ab109906).

[8] = tested on: C. elegans; test: Oxygen consumption rate in living C. elegans; format: in vivo, Caenorhabditis elegans; details: worms, 8 mM, day 2 of adulthood
Method: OCR was assessed on day 2 of adulthood. […] Oxygen consumption rates were measured 7 times under basal conditions and normalized to the number of worms counted per well. The experiment was repeated twice. Statistical analysis was performed using Microsoft Excel (t-test, two-tailed, two-sample unequal variance).

[9] = target: T5, ATP5B (Homo sapiens, UniProt P06576); test: DARTS (drug affinity responsive target stability) with Western blotting; format: binding; details: human cell lysates, Pronase digestion
T5 construct: HeLa cells were lysed in M-PER buffer; endogenous in cells; host or cells: HeLa (alpha-KG); U87 (2-HG)
Method: Target identification using DARTS was conducted in accordance with methods know in the art. […] The resulting digests were separated by SDS-PAGE and visualized using SYPRO Ruby Protein Gel Stain (Invitrogen, S12000).
GAPDH (Ambion, AM4300) was used as a negative control.
For 2-HG experiments, DARTS was performed as described above.

[10] = tested on: normal human diploid fibroblasts WI-38; test: Cell growth assay; format: cell-based; details: data not shown
Method: (§2) Cells were seeded in 12-well plates and after overnight incubation were treated with indicated concentrations of each compound. After harvesting, cells were stained by Acridine Orange (AO) and DAPI. Cell number and viability were measured based on AO and DAPI fluorescence measured by NC3000 (Chemometec) following the manufacturer's instructions.

[11] = tested on: A549; test: Cell growth assay; format: cell-based, human; details: data not shown
Method: as §2

[12] = tested on: Jurkat; test: Cell growth assay; format: cell-based, human; details: data not shown
Method: as §2

[13] = tested on: HEK 293 cells; test: Cell growth assay; format: cell-based, human; details: data not shown
Method: as §2

[14] = tested on: U87 cells; test: Assay for ATP levels in U87 cells; format: cell-based, human; details: mitochondrial oxidative phosphorylation conditions, 2 hours
Method: For 2-HG experiments, U87 cells were seeded in 96-well plates at 2×10^4 cells per well and treated with indicated compound for 2 hours in triplicate. ATP levels were measured using the CellTiter-Glo luminescent ATP assay (Promega, G7572); luminescence was read using Analyst HT (Molecular Devices). […] Statistical analysis was performed using GraphPad Prism (unpaired t-test).

[15] = tested on: mTOR; test: Assay for mammalian TOR (mTOR) pathway activity; format: cell-based, human; details: U87 cells
Description: Specific antibodies used: P-S6K T389 (Cell Signaling Technology, 9234), S6K (Cell Signaling Technology, 9202S), P-4E-BP1 S65 (Cell Signaling Technology, 9451S), 4E-BP1 (Cell Signaling Technology, 9452S), P-AKT S473 (Cell Signaling Technology, 4060S), AKT (Cell Signaling Technology, 4691S), P-ULK1 S757 (Cell Signaling Technology, 6888), ULK1 (Cell Signaling Technology, 4773S), and GAPDH (Santa Cruz Biotechnology, 25778).

[16] = tested on: WI-38 cells; test: Assay for ATP levels in normal human fibroblasts; format: cell-based; details: 2 hours
Method: Normal human diploid fibroblast WI-38 (ATCC, CCL-75) cells were seeded in 96-well plates at 2×10^4 cells per well. […] ATP levels were measured using the CellTiter-Glo luminescent ATP assay (Promega, G7572); luminescence was read using Analyst HT (Molecular Devices). In parallel, identically treated cells were lysed in M-PER (Thermo Scientific, 78501) to obtain protein concentration by BCA Protein Assay kit (Pierce, 23223). ATP levels were normalized to protein content. Statistical analysis was performed using GraphPad Prism (unpaired t-test).

[17] = tested on: DBA2/J female mice; test: Isoproterenol-induced hypertrophy and heart failure in mice; format: in vivo, mouse; details: ISO plus octyl α-KG, 3 weeks, echocardiography; ISO+octanol 49.2%±1.9
Method: Hypertrophy and heart failure were induced by chronic infusion of isoproterenol for 3 weeks at a dose of 30 μg per gram bodyweight per day using osmotic mini-pumps (Alzet, model 1004). DBA2/J female mice at 8 weeks old were used for this study. […] ISO-induced cardiac hypertrophy and cardiomyopathy were determined at the end of experiment by assessing heart size and heart to body weight ratio.
More importantly, cardiac output was assessed and the cardiac ejection fractions were determined by echocardiography. The cardiac EF for the basal levels before the treatment is 55.1%±2.6 (n=14).

[18] = tested on: neonatal rat cardiomyocytes; test: Isoproterenol/phenylephrine-induced hypertrophy in isolated neonatal cardiomyocytes; format: cell-based; details: 200 μM
Method: Cardiomyocytes of neonatal rats were isolated by collagenase digestion and cultured overnight in DMEM containing 10% fetal calf serum (FCS), and then culture medium was changed to serum-free high glucose insulin-transferrin-sodium selenite (ITS). Hypertrophy of cardiomyocytes was induced by treating the cells with 1 mM isoproterenol (ISO) or phenylephrine (PE) for 48 hours.

[19] = target: T6, ATP synthase (Mus musculus, UniProt P56480); test: ATP synthase enzyme inhibition kinetics; format: biochemical
T6 construct: Mitochondria were isolated from mouse liver as described above; from tissue; host or cells: isolated mouse liver mitochondria
Method: ATP synthesis enzyme inhibition kinetic analysis was performed using isolated mitochondria. Mitochondria were isolated from mouse liver as described above. The final mitochondrial pellet was resuspended in MAS buffer supplemented with 5 mM sodium ascorbate (Sigma, A7631) and 5 mM TMPD (Sigma, T7394).
ATP synthesis was monitored by the increase in luminescence over time by a luminometer (Analyst HT, Molecular Devices). ATP synthase-independent ATP formation, derived from the oligomycin-insensitive luminescence, was subtracted as background. The initial velocity of ATP synthesis was calculated from the slope of the first 3 minutes of the reaction, before the velocity begins to decrease. Enzyme inhibition kinetics was analyzed by nonlinear regression least squares fit using GraphPad Prism.

[20] = tested on: mammalian cells; test: Oxygen consumption rate in cells (Seahorse XF-24); format: cell-based; details: treated cells, 1 hour
Method: OCR measurements were made using a Seahorse XF-24 analyzer (Seahorse Bioscience) (Wu, et al. Am J Physiol Cell Physiol 292, C125-136 (2007)). […] Oxygen consumption rates were measured 3 times under basal conditions and normalized to protein concentration per well. Statistical analysis was performed using GraphPad Prism.

[21] = tested on: AMPK; test: AMPK (T172) phosphorylation by Western blotting; format: cell-based, human; details: WI-38 cells; higher concentration of octyl α-KG
Method: Western blotting was performed with specific antibodies against P-AMPK T172 (Cell Signaling Technology, 2535S) and AMPK (Cell Signaling Technology, 2603S). […] Number of GFP::LGG-1 containing puncta was quantitated using ImageJ. Bars indicate the mean. […] HEK-293 (Panel d) or HeLa (Panel e) cells were lysed in M-PER buffer (Thermo Scientific, 78501) with the addition of protease inhibitors (Roche, 11836153001) and phosphatase inhibitors (50 mM NaF, 10 mM β-glycerophosphate, 5 mM sodium pyrophosphate, 2 mM Na3VO4). Protein concentration of the lysate was measured by BCA Protein Assay kit (Pierce, 23227). […] Pronase (Roche, 10165921001) digestions were performed for 20 minutes at room temperature, and stopped by adding SDS loading buffer and immediately heating at 95° C. for 5 minutes (for Panel d) or 70° C. for 10 minutes (for Panel e). Samples were subjected to SDS-PAGE on 4-12% Bis-Tris gradient gel (Invitrogen, NP0322BOX) and Western blotted with specific antibodies against ATP5B (Santa Cruz, sc58618), mTOR (Cell Signaling Technology, 2972), or GAPDH (Ambion, AM4300). ImageJ was used to quantify the mTOR/GAPDH and ATP5B/GAPDH ratios.

[22] = target: mitochondrial ATP synthase (Complex V) (Mus musculus, UniProt P56480); test: Mice fed octyl α-KG in chow; heart mitochondria OCR
Method: The mice were sacrificed, hearts harvested, and mitochondria isolated. The oxygen consumption rate (OCR) was measured using a Seahorse XF-24 Analyzer (Seahorse Bioscience).

[23] = tested on: U87 cells; test: Cell growth and viability assays in U87 cells; format: cell-based, human
Method: IDH1(R132H) mutant or IDH1(WT) expressing U87 cells were as reported (Li, et al. Neuro Oncol 15, 57-68). […] All the cells were cultured at 37° C. and 5% CO2. Cells were transfected with indicated siRNA using Thermo Scientific DharmaFECT Transfection Reagent 1 by following the manufacturer's instructions.
as §2

T5 sequence (P06576 48-529): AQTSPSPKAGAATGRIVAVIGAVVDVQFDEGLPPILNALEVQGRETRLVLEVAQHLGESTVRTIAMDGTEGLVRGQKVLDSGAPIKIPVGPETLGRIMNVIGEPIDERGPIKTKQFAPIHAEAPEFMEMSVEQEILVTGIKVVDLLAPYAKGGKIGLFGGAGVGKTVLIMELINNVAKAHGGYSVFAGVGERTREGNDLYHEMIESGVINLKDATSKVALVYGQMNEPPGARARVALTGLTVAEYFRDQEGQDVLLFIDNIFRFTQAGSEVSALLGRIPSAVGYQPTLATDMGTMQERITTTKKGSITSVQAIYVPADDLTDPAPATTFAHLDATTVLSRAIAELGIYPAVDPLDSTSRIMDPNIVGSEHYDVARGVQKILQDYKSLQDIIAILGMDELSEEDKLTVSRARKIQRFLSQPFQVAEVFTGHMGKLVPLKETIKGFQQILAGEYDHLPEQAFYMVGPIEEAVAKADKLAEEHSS
T3 sequence (P46561 whole entry): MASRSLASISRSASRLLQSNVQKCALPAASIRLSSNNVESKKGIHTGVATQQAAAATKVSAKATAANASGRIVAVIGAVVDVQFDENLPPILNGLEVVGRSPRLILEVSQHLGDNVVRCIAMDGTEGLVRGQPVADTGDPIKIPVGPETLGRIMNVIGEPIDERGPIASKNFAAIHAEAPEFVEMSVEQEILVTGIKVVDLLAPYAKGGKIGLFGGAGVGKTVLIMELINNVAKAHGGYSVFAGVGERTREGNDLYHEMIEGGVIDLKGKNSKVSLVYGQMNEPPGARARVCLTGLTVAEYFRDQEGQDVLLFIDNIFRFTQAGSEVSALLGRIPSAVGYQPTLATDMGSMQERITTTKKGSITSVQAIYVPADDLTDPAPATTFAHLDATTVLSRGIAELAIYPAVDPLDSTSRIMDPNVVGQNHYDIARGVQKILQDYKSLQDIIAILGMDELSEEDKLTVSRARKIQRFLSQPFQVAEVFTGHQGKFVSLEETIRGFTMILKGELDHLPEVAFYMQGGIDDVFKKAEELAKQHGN

## O=C(O)CCC(=O)C(=O)O [α-KG, α-ketoglutarate]
[1]
  ATP levels: reduced
[2]
  binding to TOR by DARTS: does not bind
[3]
  activity of lactate dehydrogenase: did not affect
[4]
  activity of pyruvate kinase: did not affect
[5]; bovine heart mitochondria
  activity of Complex V: inhibits
[6]
  ATP-2 protein protection from Pronase digestion: protection
[7]
  Complex IV activity: does not affect
[8]
  oxygen consumption rates: Decreased
[9]
  binding to ATP5B by DARTS: binding specifically

## O=C(O)CCC(O)C(=O)O (stereo not drawn) [2-HG, 2-hydroxypentanedioate]
[10]
  cell growth: Growth inhibition
[11]
  cell growth: Growth inhibition
[12]
  cell growth: Growth inhibition
[13]
  cell growth: Growth inhibition

## CCCCCCCCOC(=O)C(=O)CCC(=O)O [octyl α-KG, octyl α-ketoglutarate]
[14]
  ATP content: decreased
[15]
  phosphorylation of S6K (T389): decreased
  phosphorylation of mTOR substrates: decreased
[16]
  ATP levels: reduced
[17]
  cardiac ejection fraction: 53.8%±2.3
[18]
  ISO- and PE-induced overexpression of ANF and BNP: suppressed
[18]; 1 mM isoproterenol, 48 hours
  ISO-induced hypertrophy: completely abolished
[5]; α-KG released from octyl α-KG, not shown
  reversibility of ATP synthase inhibition: reversible
[19]; 200 μM octyl α-KG, octanol vehicle 53.9
  apparent Vmax of ATP synthase: 26.7
[19]; α-KG released from octyl α-KG
  mode of ATP synthase inhibition: uncompetitive inhibition
[20]
  oxygen consumption rates: Decreased
[21]
  P-AMPK (T172): increased
[22]; mice fed 1.5 mg/g body weight in chow for one week, versus octanol control mice
  state 3 respiration of heart mitochondria: lower
[22]; mice, 1.5 mg/g body weight in chow, after 5 days feeding
  physiological or behavioral abnormality: no abnormality
[23]; 400 μM and 800 μM
  viability upon glucose starvation: decreased
[23]; glucose medium, to a lesser extent, not shown
  growth rate: reduced
[23]; glucose-free medium, 400 μM and 800 μM
  growth rate: decreased growth rate
